Laboratory results taken from article PMC2933744 (Biochemistry, 2008).

Assays:
hPRMT1 [1] = target: T1, hPRMT1 (Homo sapiens, UniProt Q99873); test: Dead-end analogue inhibition, AcH4-21 and SAM as substrates; type: biochemical; settings: pH 8.0, 37°C
hPRMT1 [2] = target: T1, hPRMT1; test: Initial velocity studies; type: biochemical; settings: for K(SAM) (Michaelis constant): pH 8.0, 37°C, fit to eq 2

T1 sequence (Q99873 whole entry): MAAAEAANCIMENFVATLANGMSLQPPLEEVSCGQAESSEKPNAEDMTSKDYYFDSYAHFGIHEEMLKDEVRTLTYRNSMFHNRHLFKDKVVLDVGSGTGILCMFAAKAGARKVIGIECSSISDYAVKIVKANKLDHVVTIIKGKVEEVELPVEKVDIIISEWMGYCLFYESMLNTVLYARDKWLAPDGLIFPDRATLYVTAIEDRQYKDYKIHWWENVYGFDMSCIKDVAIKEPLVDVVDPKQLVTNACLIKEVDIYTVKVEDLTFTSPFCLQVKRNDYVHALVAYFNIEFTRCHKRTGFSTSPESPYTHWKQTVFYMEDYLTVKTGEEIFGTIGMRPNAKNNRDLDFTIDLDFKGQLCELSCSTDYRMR

Structure (SMILES) | Kii (intercept Ki) (hPRMT1 [1]; AcH4-21 varied, fixed [SAM] = 15 µM, mixed fit eq 5) [nM] | Inhibition pattern (hPRMT1 [1]; SAM varied, fixed AcH4-21 10 µM, 212 nM hPRMT1, at least duplicate) | K(SAM) (Michaelis constant) (hPRMT1 [2]; AcH4-21 varied, fixed SAM 1, 2.5, 7.5 µM) | Initial velocity pattern (double reciprocal plots) (hPRMT1 [2]; SAM and peptide varied at various fixed concentrations of the other substrate) | K(SAM) (Michaelis constant) (hPRMT1 [2]; SAM varied, fixed AcH4-21 2.5, 5, 25 µM)
Nc1ncnc2c1ncn2[C@@H]1O[C@H](C[C@@H](N)CC[C@H](N)C(=O)O)[C@@H](O)[C@H]1O [Sinefungin] | 470 ± 190 | Competitive |  |  | 
C[S+](CC[C@H](N)C(=O)[O-])C[C@H]1O[C@@H](n2cnc3c(N)ncnc32)[C@H](O)[C@@H]1O (stereo partly drawn) [SAM, S-adenosyl-L-methionine] |  |  | 8.35 ± 2.11 | intersect in the second quadrant | 21.1 ± 4.0
